# Results taken from US20240398828A1, “HETERO-ATOM CONTAINING COMPOUNDS AND USES THEREOF” (Kumquat Biosciences Inc., priority 2021, published 2024).
# Tests used:
# PTPN2 (i.e., TC-PTP) = target: T1, PTPN2 (i.e., TC-PTP) (Homo sapiens, UniProt P17706); experiment: Phosphatase activity assay (DiFMUP substrate), PTPN2; format: biochemical; details: compounds binned ≤1 uM or >1 uM
# T1 sequence (P17706 1-415): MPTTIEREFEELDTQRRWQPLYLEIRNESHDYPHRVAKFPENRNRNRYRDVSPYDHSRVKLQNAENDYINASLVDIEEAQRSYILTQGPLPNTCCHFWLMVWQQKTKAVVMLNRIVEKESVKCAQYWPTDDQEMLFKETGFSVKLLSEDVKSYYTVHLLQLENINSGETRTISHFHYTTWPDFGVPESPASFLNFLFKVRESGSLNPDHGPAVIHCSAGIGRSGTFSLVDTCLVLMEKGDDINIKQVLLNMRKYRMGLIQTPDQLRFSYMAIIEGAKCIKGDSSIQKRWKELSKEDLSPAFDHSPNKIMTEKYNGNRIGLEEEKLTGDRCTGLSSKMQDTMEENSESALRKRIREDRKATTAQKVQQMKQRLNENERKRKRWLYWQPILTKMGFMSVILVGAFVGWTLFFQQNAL
# Method in brief: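 Continuous fluorogenic readout of DiFMUP dephosphorylation at room temperature, substrate set at Km for each phosphatase (about 45 μM in the PTPN2 assay). The buffer contains 1 mM DTT and 0.001% Tween-20, pH 7.5.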
# PTPN1 (i.e., PTP1B) = target: T2, PTPN1 (i.e., PTP1B) (Homo sapiens, UniProt P18031); experiment: Phosphatase activity assay (DiFMUP substrate), PTP1B; format: biochemical; details: compounds binned ≤1 uM or >1 uM
# T2 sequence (P18031 1-435): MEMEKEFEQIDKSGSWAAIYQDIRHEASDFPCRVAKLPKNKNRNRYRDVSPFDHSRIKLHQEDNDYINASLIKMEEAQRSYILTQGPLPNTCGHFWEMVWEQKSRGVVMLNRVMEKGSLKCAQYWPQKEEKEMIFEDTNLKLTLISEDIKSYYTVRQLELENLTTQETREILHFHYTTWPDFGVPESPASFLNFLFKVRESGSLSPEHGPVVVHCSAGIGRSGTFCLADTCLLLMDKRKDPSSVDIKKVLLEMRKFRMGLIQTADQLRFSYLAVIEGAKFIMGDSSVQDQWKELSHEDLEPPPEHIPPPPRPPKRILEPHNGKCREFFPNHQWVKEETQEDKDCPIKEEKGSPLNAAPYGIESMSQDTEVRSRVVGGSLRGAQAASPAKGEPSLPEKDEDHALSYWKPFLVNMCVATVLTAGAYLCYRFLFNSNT
# Method in brief: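 First, serially diluted inhibitor is mixed about 2 minutes with enzyme in pH 7.5 HEPES/NaCl/EDTA/DTT/Tween-20 buffer. Next, DiFMUP is added at the enzyme's Km, approximately 45 μM for PTPN2. Finally, DiFMU appearance is read continuously at room temperature and rates are fitted for IC50.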
Compound,"IC50 (PTPN2 (i.e., TC-PTP))","IC50 (PTPN1 (i.e., PTP1B))"
"O=C1CC(c2c(O)ccc(-c3cn(CC4CCCCC4)cn3)c2F)S(=O)(=O)N1 (stereo not drawn) [Compound 419, 5-(3-(1-(cyclohexylmethyl)-1H-imidazol-4-yl)-2-fluoro-6-hydroxyphenyl)isothiazolidin-3-one 1,1-dioxide]",> 1000 nM,> 1000 nM
"O=C1CN(c2c(O)ccc(-c3ccnc(-c4ccccc4)c3)c2F)S(=O)(=O)N1 [Compound 136, 5-(2-fluoro-6-hydroxy-3-(2-phenylpyridin-4-yl)phenyl)-1,2,5-thiadiazolidin-3-one 1,1-dioxide]",> 1000 nM,≤ 1000 nM
"COc1ccc(-c2cnc(O)nc2)c(F)c1N1CC(=O)NS1(=O)=O [Compound 105, 5-(2-fluoro-3-(2-hydroxypyrimidin-5-yl)-6-methoxyphenyl)-1,2,5-thiadiazolidin-3-one 1,1-dioxide]",> 1000 nM,> 1000 nM
"CC(C)(C#N)c1cc(-c2ccc(O)c(N3CC(=O)NS3(=O)=O)c2F)[nH]n1 [Compound 368, 2-(5-(3-(1,1-dioxido-4-oxo-1,2,5-thiadiazolidin-2-yl)-2-fluoro-4-hydroxyphenyl)-1H-pyrazol-3-yl)-2-methylpropanenitrile]",≤ 1000 nM,≤ 1000 nM
"NC(=O)Cc1cc(-c2ccc(O)c(N3CC(=O)NS3(=O)=O)c2F)[nH]n1 [Compound 520, 2-(5-(3-(1,1-dioxido-4-oxo-1,2,5-thiadiazolidin-2-yl)-2-fluoro-4-hydroxyphenyl)-1H-pyrazol-3-yl)acetamide]",≤ 1000 nM,≤ 1000 nM
"O=C1CN(c2c(O)ccc(-c3cc(C#CC4CCCCC4)n[nH]3)c2F)S(=O)(=O)N1 [Compound 253, 5-(3-(3-(cyclohexylethynyl)-1H-pyrazol-5-yl)-2-fluoro-6-hydroxyphenyl)-1,2,5-thiadiazolidin-3-one 1,1-dioxide]",≤ 1000 nM,≤ 1000 nM
"Cn1cc(-c2ccc(O)c(N3CC(=O)NS3(=O)=O)c2F)nc1O [Compound 527, 5-(2-fluoro-6-hydroxy-3-(2-hydroxy-1-methyl-1H-imidazol-4-yl)phenyl)-1,2,5-thiadiazolidin-3-one 1,1-dioxide]",≤ 1000 nM,≤ 1000 nM
"O=C1CN(c2c(O)ccc(-c3cnn(S(=O)(=O)C4CC4)c3)c2F)S(=O)(=O)N1 [Compound 342, 5-(3-(1-(cyclopropylsulfonyl)-1H-pyrazol-4-yl)-2-fluoro-6-hydroxyphenyl)-1,2,5-thiadiazolidin-3-one 1,1-dioxide]",≤ 1000 nM,≤ 1000 nM
"O=C1CN(c2c(O)ccc(-c3cnn(C4CCCOC4)c3)c2F)S(=O)(=O)N1 (stereo not drawn) [Compound 351, 5-(2-fluoro-6-hydroxy-3-(1-(tetrahydro-2H-pyran-3-yl)-1H-pyrazol-4-yl)phenyl)-1,2,5-thiadiazolidin-3-one 1,1-dioxide]",≤ 1000 nM,≤ 1000 nM
"O=C1CN(c2c(O)ccc(-c3cnn(CC4CCOCC4)c3)c2F)S(=O)(=O)N1 [Compound 171, 5-(2-fluoro-6-hydroxy-3-(1-((tetrahydro-2H-pyran-4-yl)methyl)-1H-pyrazol-4-yl)phenyl)-1,2,5-thiadiazolidin-3-one 1,1-dioxide]",≤ 1000 nM,≤ 1000 nM
"COC(=O)C1C=C(c2ccc(O)c(N3CC(=O)NS3(=O)=O)c2F)CN1 (stereo not drawn) [Compound 399, methyl 4-(3-(1,1-dioxido-4-oxo-1,2,5-thiadiazolidin-2-yl)-2-fluoro-4-hydroxyphenyl)-2,5-dihydro-1H-pyrrole-2-carboxylate]",≤ 1000 nM,≤ 1000 nM
"O=C1CN(c2c(O)ccc(C3=CCOC3)c2F)S(=O)(=O)N1 [Compound 291, 5-(3-(2,5-dihydrofuran-3-yl)-2-fluoro-6-hydroxyphenyl)-1,2,5-thiadiazolidin-3-one 1,1-dioxide]",≤ 1000 nM,≤ 1000 nM

# The remaining lines, values ahead:
"IC50 (PTPN2 (i.e., TC-PTP))","IC50 (PTPN1 (i.e., PTP1B))",Compound
≤ 1000 nM,≤ 1000 nM,"O=C1CN(c2c(O)ccc(-c3cc(CCC4CCC4)n[nH]3)c2F)S(=O)(=O)N1 [Compound 339, 5-(3-(3-(2-cyclobutylethyl)-1H-pyrazol-5-yl)-2-fluoro-6-hydroxyphenyl)-1,2,5-thiadiazolidin-3-one 1,1-dioxide]"
≤ 1000 nM,≤ 1000 nM,"N=C(N)N1CCC=C(c2ccc(O)c(N3CC(=O)NS3(=O)=O)c2F)C1 [Compound 499, 5-(3-(1,1-dioxido-4-oxo-1,2,5-thiadiazolidin-2-yl)-2-fluoro-4-hydroxyphenyl)-3,6-dihydropyridine-1(2H)-carboximidamide]"
≤ 1000 nM,≤ 1000 nM,"O=C1CN(c2c(O)ccc(-c3cnn(-c4ccccc4)c3)c2F)S(=O)(=O)N1 [Compound 147, 5-(2-fluoro-6-hydroxy-3-(1-phenyl-1H-pyrazol-4-yl)phenyl)-1,2,5-thiadiazolidin-3-one 1,1-dioxide]"
≤ 1000 nM,≤ 1000 nM,"O=C1CN(c2c(O)ccc(-c3cnn(Cc4ccncc4)c3)c2F)S(=O)(=O)N1 [Compound 174, 5-(2-fluoro-6-hydroxy-3-(1-(pyridin-4-ylmethyl)-1H-pyrazol-4-yl)phenyl)-1,2,5-thiadiazolidin-3-one 1,1-dioxide]"
≤ 1000 nM,≤ 1000 nM,"O=C1CN(c2c(O)ccc(-c3cc(C4CC4CO)n[nH]3)c2F)S(=O)(=O)N1 (stereo not drawn) [Compound 501, 5-(2-fluoro-6-hydroxy-3-(3-(2-(hydroxymethyl)cyclopropyl)-1H-pyrazol-5-yl)phenyl)-1,2,5-thiadiazolidin-3-one 1,1-dioxide]"
≤ 1000 nM,≤ 1000 nM,"CN1CCN(c2ccc(-c3ccc(O)c(N4CC(=O)NS4(=O)=O)c3F)cn2)CC1 [Compound 202, 5-(2-fluoro-6-hydroxy-3-(6-(4-methylpiperazin-1-yl)pyridin-3-yl)phenyl)-1,2,5-thiadiazolidin-3-one 1,1-dioxide]"
≤ 1000 nM,≤ 1000 nM,"O=C1CN(c2c(O)ccc(-c3cc(C4CC4)n(C4CC4)n3)c2F)S(=O)(=O)N1 [Compound 429, 5-(3-(1,5-dicyclopropyl-1H-pyrazol-3-yl)-2-fluoro-6-hydroxyphenyl)-1,2,5-thiadiazolidin-3-one 1,1-dioxide]"
≤ 1000 nM,≤ 1000 nM,"Cc1c(-c2cnn(CCC(C)C)c2)ccc(O)c1N1CC(=O)NS1(=O)=O [Compound 119, 5-(6-hydroxy-3-(1-isopentyl-1H-pyrazol-4-yl)-2-methylphenyl)-1,2,5-thiadiazolidin-3-one 1,1-dioxide]"
≤ 1000 nM,≤ 1000 nM,"O=C1CN(c2c(O)ccc(C3=CCCNC3)c2F)S(=O)(=O)N1 [Compound 511, 5-(2-fluoro-6-hydroxy-3-(1,2,5,6-tetrahydropyridin-3-yl)phenyl)-1,2,5-thiadiazolidin-3-one 1,1-dioxide]"
≤ 1000 nM,≤ 1000 nM,"O=C1CN(c2c(O)ccc(-c3ccc(NS(=O)(=O)C4CC4)cc3F)c2F)S(=O)(=O)N1 [Compound 438, N-(3′-(1,1-dioxido-4-oxo-1,2,5-thiadiazolidin-2-yl)-2,2′-difluoro-4′-hydroxy-[1,1′-biphenyl]-4-yl)cyclopropanesulfonamide]"
≤ 1000 nM,≤ 1000 nM,"O=C1CN(c2c(O)ccc(-c3ccc(NS(=O)(=O)C4CC4)cn3)c2F)S(=O)(=O)N1 [Compound 261, N-(6-(3-(1,1-dioxido-4-oxo-1,2,5-thiadiazolidin-2-yl)-2-fluoro-4-hydroxyphenyl)pyridin-3-yl)cyclopropanesulfonamide]"
≤ 1000 nM,≤ 1000 nM,"O=C1CN(c2c(O)ccc(-c3cnn(CC4(O)CCC4)c3)c2F)S(=O)(=O)N1 [Compound 307, 5-(2-fluoro-6-hydroxy-3-(1-((1-hydroxycyclobutyl)methyl)-1H-pyrazol-4-yl)phenyl)-1,2,5-thiadiazolidin-3-one 1,1-dioxide]"
≤ 1000 nM,≤ 1000 nM,"O=C1CN(c2c(O)ccc(-c3ccnc(N4CCCC4)c3)c2F)S(=O)(=O)N1 [Compound 162, 5-(2-fluoro-6-hydroxy-3-(2-(pyrrolidin-1-yl)pyridin-4-yl)phenyl)-1,2,5-thiadiazolidin-3-one 1,1-dioxide]"
≤ 1000 nM,≤ 1000 nM,"CN(C)C1CC=C(c2ccc(O)c(N3CC(=O)NS3(=O)=O)c2F)C1 (stereo not drawn) [Compound 301, 5-(3-(4-(dimethylamino)cyclopent-1-en-1-yl)-2-fluoro-6-hydroxyphenyl)-1,2,5-thiadiazolidin-3-one 1,1-dioxide]"
≤ 1000 nM,≤ 1000 nM,"O=C1C=C(c2c(O)ccc(-c3cn(C4CC4)cn3)c2F)S(=O)(=O)N1 [Compound 244, 5-(3-(1-cyclopropyl-1H-imidazol-4-yl)-2-fluoro-6-hydroxyphenyl)isothiazol-3(2H)-one 1,1-dioxide]"
